Measured values as given in ChEMBL document CHEMBL5055626 (J Med Chem, 2021).
Calls of active or inactive are those of the source. The calls are words filed in the database; no cut-off is given here. Where a SMILES comes first, the peptide text is derived from it. Bridges are numbered along the chain shown (N, C = ends).

What was measured:
[1] = Antagonist activity at rat nAChR alpha7 M69V mutant expressed in xenopus oocytes assessed as inhibition of Ach- induced response at -70 mV holding potential preincubated for 5 mins followed by Ach stimulation by voltage-clamp based electrophysiological method; type: cell-based; settings: Oocyte
[2] = target: Neuronal acetylcholine receptor; alpha3/beta2 (Rattus norvegicus, UniProt P04757+P12390); test: Antagonist activity at rat alpha3beta2 nAChR expressed in xenopus oocytes assessed as inhibition of Ach- induced response at -70 mV holding potential preincubated for 5 mins followed by Ach stimulation by voltage-clamp based electrophysiological method; type: cell-based, Oocyte
Neuronal acetylcholine receptor; alpha3/beta2, sequence (P04757 whole entry): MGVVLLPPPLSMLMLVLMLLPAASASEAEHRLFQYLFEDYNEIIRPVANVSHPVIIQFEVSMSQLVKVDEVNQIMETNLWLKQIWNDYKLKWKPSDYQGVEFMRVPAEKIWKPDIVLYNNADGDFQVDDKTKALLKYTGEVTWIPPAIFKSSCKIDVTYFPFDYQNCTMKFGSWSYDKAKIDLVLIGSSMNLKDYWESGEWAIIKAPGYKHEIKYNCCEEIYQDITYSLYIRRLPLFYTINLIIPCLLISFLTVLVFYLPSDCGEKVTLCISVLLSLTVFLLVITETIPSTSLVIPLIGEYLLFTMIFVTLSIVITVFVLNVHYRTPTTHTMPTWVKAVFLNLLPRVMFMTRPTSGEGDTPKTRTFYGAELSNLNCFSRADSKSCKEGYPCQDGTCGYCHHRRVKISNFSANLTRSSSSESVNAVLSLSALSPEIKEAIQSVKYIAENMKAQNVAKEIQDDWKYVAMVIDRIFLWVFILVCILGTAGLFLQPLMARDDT
Neuronal acetylcholine receptor; alpha3/beta2, sequence (P12390 whole entry): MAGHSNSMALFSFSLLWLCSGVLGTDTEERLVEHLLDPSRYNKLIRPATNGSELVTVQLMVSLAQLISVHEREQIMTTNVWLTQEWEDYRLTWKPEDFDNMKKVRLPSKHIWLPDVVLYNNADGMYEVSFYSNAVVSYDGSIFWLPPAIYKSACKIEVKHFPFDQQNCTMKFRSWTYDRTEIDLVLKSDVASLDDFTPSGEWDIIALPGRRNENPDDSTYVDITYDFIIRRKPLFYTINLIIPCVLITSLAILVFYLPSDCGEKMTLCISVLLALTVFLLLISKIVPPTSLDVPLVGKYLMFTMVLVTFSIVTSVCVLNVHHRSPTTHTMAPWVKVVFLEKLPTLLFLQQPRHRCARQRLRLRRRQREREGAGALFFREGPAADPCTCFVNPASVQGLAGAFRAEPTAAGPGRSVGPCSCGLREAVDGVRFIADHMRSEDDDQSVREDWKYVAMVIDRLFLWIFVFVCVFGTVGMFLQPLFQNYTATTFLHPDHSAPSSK

[3] = Antagonist activity at rat alpha6/ alpha3beta2beta3 nAChR expressed in xenopus oocytes assessed as inhibition of Ach- induced response at -70 mV holding potential preincubated for 5 mins followed by Ach stimulation by voltage-clamp based electrophysiological method; type: cell-based; settings: Oocyte
[4] = target: Neuronal acetylcholine receptor; alpha2/beta4 (Rattus norvegicus, UniProt P12389+P12392); test: Antagonist activity at rat alpha2beta4 nAChR expressed in xenopus oocytes assessed as inhibition of Ach- induced response at -70 mV holding potential preincubated for 5 mins followed by Ach stimulation by voltage-clamp based electrophysiological method; type: cell-based, Oocyte
Neuronal acetylcholine receptor; alpha2/beta4, sequence (P12389 whole entry): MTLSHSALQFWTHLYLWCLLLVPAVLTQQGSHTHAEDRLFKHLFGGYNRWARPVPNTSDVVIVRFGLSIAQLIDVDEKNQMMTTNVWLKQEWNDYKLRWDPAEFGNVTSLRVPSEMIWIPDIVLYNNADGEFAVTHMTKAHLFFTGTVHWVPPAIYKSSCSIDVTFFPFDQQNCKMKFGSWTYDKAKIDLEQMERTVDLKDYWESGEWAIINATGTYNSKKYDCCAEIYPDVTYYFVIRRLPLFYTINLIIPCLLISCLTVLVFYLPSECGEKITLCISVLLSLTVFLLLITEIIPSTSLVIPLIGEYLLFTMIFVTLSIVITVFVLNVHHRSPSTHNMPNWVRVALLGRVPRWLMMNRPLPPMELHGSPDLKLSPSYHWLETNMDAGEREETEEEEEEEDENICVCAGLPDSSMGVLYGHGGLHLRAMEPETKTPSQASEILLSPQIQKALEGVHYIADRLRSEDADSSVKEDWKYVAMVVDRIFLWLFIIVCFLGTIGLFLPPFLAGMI
Neuronal acetylcholine receptor; alpha2/beta4, sequence (P12392 whole entry): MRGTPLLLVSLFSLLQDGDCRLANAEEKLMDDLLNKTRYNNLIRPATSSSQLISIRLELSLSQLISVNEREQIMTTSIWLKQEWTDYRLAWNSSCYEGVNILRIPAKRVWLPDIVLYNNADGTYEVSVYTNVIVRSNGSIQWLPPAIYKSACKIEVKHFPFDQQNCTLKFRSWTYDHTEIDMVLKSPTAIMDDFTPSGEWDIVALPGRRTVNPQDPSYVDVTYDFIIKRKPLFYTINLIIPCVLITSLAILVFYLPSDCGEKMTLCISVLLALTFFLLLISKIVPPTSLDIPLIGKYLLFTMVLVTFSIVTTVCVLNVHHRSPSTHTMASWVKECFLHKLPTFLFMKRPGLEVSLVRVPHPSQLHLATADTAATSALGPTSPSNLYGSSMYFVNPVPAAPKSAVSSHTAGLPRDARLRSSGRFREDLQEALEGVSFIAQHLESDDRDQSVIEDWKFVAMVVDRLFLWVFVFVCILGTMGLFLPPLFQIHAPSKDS

[5] = target: Neuronal acetylcholine receptor; alpha3/beta4 (Rattus norvegicus, UniProt P04757+P12392); test: Antagonist activity at rat alpha3beta4 nAChR expressed in xenopus oocytes assessed as inhibition of Ach- induced response at -70 mV holding potential preincubated for 5 mins followed by Ach stimulation by voltage-clamp based electrophysiological method; type: cell-based, Oocyte
Neuronal acetylcholine receptor; alpha3/beta4, sequence (P04757 whole entry): as the sequence (P04757 whole entry) above
Neuronal acetylcholine receptor; alpha3/beta4, sequence (P12392 whole entry): as the sequence (P12392 whole entry) above

[6] = target: Neuronal acetylcholine receptor; alpha4/beta2 (Rattus norvegicus, UniProt P09483+P12390); test: Antagonist activity at rat alpha4beta2 nAChR expressed in xenopus oocytes assessed as inhibition of Ach- induced response at -70 mV holding potential preincubated for 5 mins followed by Ach stimulation by voltage-clamp based electrophysiological method; type: cell-based, Oocyte
Neuronal acetylcholine receptor; alpha4/beta2, sequence (P09483 whole entry): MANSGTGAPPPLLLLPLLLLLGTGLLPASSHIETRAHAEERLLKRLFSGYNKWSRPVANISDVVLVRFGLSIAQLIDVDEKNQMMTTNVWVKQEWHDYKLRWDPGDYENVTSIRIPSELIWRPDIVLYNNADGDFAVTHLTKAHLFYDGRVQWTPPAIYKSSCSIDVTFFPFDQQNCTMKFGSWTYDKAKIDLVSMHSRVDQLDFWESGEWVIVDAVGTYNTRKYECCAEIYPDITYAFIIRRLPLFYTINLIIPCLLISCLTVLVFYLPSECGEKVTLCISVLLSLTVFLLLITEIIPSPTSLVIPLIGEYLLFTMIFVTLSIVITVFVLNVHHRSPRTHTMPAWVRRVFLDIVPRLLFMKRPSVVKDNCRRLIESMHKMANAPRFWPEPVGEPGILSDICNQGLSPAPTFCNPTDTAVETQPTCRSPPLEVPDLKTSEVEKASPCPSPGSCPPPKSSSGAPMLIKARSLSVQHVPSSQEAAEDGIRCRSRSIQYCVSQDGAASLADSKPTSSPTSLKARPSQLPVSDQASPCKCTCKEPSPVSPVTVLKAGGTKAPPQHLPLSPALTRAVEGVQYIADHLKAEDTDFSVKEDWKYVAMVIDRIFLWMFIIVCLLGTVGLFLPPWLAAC
Neuronal acetylcholine receptor; alpha4/beta2, sequence (P12390 whole entry): as the sequence (P12390 whole entry) above

[7] = target: Neuronal acetylcholine receptor; alpha4/beta4 (Rattus norvegicus, UniProt P09483+P12392); test: Antagonist activity at rat alpha4beta4 nAChR expressed in xenopus oocytes assessed as inhibition of Ach- induced response at -70 mV holding potential preincubated for 5 mins followed by Ach stimulation by voltage-clamp based electrophysiological method; type: cell-based, Oocyte
Neuronal acetylcholine receptor; alpha4/beta4, sequence (P09483 whole entry): as the sequence (P09483 whole entry) above
Neuronal acetylcholine receptor; alpha4/beta4, sequence (P12392 whole entry): as the sequence (P12392 whole entry) above

[8] = target: Nicotinic acetylcholine receptor alpha9/alpha10 (Rattus norvegicus, UniProt P43144+Q9JLB5); test: Antagonist activity at rat alpha9alpha10 nAChR expressed in xenopus oocytes assessed as inhibition of Ach- induced response at -70 mV holding potential preincubated for 5 mins followed by Ach stimulation by voltage-clamp based electrophysiological method; type: cell-based, Oocyte
Nicotinic acetylcholine receptor alpha9/alpha10, sequence (P43144 whole entry): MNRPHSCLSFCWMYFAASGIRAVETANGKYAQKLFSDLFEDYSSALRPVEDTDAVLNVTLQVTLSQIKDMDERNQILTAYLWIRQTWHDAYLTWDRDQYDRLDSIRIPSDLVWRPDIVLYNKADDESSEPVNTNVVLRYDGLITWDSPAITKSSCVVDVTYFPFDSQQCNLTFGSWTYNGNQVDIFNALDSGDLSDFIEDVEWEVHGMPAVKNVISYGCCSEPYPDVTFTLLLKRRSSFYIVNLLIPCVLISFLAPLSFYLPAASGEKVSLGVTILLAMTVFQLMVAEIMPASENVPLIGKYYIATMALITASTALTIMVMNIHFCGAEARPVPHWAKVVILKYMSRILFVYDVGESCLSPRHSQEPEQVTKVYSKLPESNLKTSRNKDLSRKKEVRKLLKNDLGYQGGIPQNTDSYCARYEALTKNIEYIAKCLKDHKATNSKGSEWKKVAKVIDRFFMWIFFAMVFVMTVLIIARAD
Nicotinic acetylcholine receptor alpha9/alpha10, sequence (Q9JLB5 whole entry): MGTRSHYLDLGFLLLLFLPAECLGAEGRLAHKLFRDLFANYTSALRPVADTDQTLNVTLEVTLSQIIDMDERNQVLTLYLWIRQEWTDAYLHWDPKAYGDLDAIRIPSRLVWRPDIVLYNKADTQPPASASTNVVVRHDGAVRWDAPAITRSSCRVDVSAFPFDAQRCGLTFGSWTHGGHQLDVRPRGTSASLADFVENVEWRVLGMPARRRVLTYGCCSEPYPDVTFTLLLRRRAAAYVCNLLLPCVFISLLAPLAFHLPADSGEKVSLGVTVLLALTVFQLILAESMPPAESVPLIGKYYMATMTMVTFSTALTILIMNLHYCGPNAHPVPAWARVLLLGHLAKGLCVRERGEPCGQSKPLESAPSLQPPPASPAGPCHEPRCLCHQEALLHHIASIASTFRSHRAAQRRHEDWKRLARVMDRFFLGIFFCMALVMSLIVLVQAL

[9] = Antagonist activity at rat nAChR alpha7 R6K mutant expressed in xenopus oocytes assessed as inhibition of Ach- induced response at -70 mV holding potential preincubated for 5 mins followed by Ach stimulation by voltage-clamp based electrophysiological method; type: cell-based; settings: Oocyte
[10] = Antagonist activity at rat nAChR alpha7 N77T mutant expressed in xenopus oocytes assessed as inhibition of Ach- induced response at -70 mV holding potential preincubated for 5 mins followed by Ach stimulation by voltage-clamp based electrophysiological method; type: cell-based; settings: Oocyte
[11] = Antagonist activity at rat nAChR alpha7 A112S mutant expressed in xenopus oocytes assessed as inhibition of Ach- induced response at -70 mV holding potential preincubated for 5 mins followed by Ach stimulation by voltage-clamp based electrophysiological method; type: cell-based; settings: Oocyte
[12] = Antagonist activity at rat nAChR alpha7 Q141H mutant expressed in xenopus oocytes assessed as inhibition of Ach- induced response at -70 mV holding potential preincubated for 5 mins followed by Ach stimulation by voltage-clamp based electrophysiological method; type: cell-based; settings: Oocyte
[13] = Antagonist activity at rat nAChR alpha7 S167G mutant expressed in xenopus oocytes assessed as inhibition of Ach- induced response at -70 mV holding potential preincubated for 5 mins followed by Ach stimulation by voltage-clamp based electrophysiological method; type: cell-based; settings: Oocyte
[14] = Antagonist activity at rat nAChR alpha7 M177V mutant expressed in xenopus oocytes assessed as inhibition of Ach- induced response at -70 mV holding potential preincubated for 5 mins followed by Ach stimulation by voltage-clamp based electrophysiological method; type: cell-based; settings: Oocyte
[15] = Antagonist activity at rat nAChR alpha7 N184S mutant expressed in xenopus oocytes assessed as inhibition of Ach- induced response at -70 mV holding potential preincubated for 5 mins followed by Ach stimulation by voltage-clamp based electrophysiological method; type: cell-based; settings: Oocyte
[16] = Antagonist activity at rat nAChR alpha7 K186R mutant expressed in xenopus oocytes assessed as inhibition of Ach- induced response at -70 mV holding potential preincubated for 5 mins followed by Ach stimulation by voltage-clamp based electrophysiological method; type: cell-based; settings: Oocyte
[17] = Antagonist activity at rat nAChR alpha7 Y200F mutant expressed in xenopus oocytes assessed as inhibition of Ach- induced response at -70 mV holding potential preincubated for 5 mins followed by Ach stimulation by voltage-clamp based electrophysiological method; type: cell-based; settings: Oocyte
[18] = target: Neuronal acetylcholine receptor subunit alpha-7 (Homo sapiens, UniProt P36544); type: cell-based, Oocyte
Neuronal acetylcholine receptor subunit alpha-7, sequence (P36544 whole entry): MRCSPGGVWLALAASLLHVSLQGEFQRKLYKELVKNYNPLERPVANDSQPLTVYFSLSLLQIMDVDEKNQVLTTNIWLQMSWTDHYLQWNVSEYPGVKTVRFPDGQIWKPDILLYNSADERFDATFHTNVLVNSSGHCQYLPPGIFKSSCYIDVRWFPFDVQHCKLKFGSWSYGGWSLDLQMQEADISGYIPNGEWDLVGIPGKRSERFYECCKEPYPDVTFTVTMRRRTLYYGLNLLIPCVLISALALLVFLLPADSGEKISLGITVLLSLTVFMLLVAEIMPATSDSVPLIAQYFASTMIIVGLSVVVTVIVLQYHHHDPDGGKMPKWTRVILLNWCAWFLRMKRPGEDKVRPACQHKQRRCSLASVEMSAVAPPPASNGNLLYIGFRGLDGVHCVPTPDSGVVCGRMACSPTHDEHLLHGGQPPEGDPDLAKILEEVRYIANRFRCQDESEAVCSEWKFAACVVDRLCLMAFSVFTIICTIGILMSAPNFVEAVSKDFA

[19] = Antagonist activity at human nAChR alpha7 S184N mutant expressed in xenopus oocytes assessed as inhibition of Ach- induced response at -70 mV holding potential preincubated for 5 mins followed by Ach stimulation by voltage-clamp based electrophysiological method; type: cell-based; settings: Oocyte
[20] = Antagonist activity at human nAChR alpha7 R186K mutant expressed in xenopus oocytes assessed as inhibition of Ach- induced response at -70 mV holding potential preincubated for 5 mins followed by Ach stimulation by voltage-clamp based electrophysiological method; type: cell-based; settings: Oocyte
[21] = Antagonist activity at human nAChR alpha7 S184N/R186K double mutant expressed in xenopus oocytes assessed as inhibition of Ach- induced response at -70 mV holding potential preincubated for 5 mins followed by Ach stimulation by voltage-clamp based electrophysiological method; type: cell-based; settings: Oocyte
[22] = Antagonist activity at human nAChR alpha7 H141Q/S184N/R186K triple mutant expressed in xenopus oocytes assessed as inhibition of Ach- induced response at -70 mV holding potential preincubated for 5 mins followed by Ach stimulation by voltage-clamp based electrophysiological method; type: cell-based; settings: Oocyte
[23] = target: Neuronal acetylcholine receptor; alpha2/beta4 (Rattus norvegicus) (UniProt P12389+P12392); test: Antagonist activity at rat alpha2beta4 nAChR expressed in xenopus oocytes assessed as inhibition of Ach- induced response at 10 uM at -70 mV holding potential preincubated for 5 mins followed by Ach stimulation by voltage-clamp based electrophysiological method; type: cell-based; settings: Oocyte
[24] = target: Neuronal acetylcholine receptor; alpha3/beta4 (Rattus norvegicus) (UniProt P04757+P12392); test: Antagonist activity at rat alpha3beta4 nAChR expressed in xenopus oocytes assessed as inhibition of Ach- induced response at 10 uM at -70 mV holding potential preincubated for 5 mins followed by Ach stimulation by voltage-clamp based electrophysiological method; type: cell-based; settings: Oocyte
[25] = target: Neuronal acetylcholine receptor; alpha4/beta2 (Rattus norvegicus) (UniProt P09483+P12390); test: Antagonist activity at rat alpha4beta2 nAChR expressed in xenopus oocytes assessed as inhibition of Ach- induced response at 10 uM at -70 mV holding potential preincubated for 5 mins followed by Ach stimulation by voltage-clamp based electrophysiological method; type: cell-based; settings: Oocyte

**Q.** Which results are given for `C[C@@H]1NC(=O)[C@@H]2CSSC[C@H](NC(=O)CN)C(=O)N[C@@H](CSSC[C@@H](C(N)=O)NC(=O)[C@H](Cc3cnc[nH]3)NC(=O)[C@H](CCC(=O)O)NC(=O)[C@H](Cc3cnc[nH]3)NC1=O)C(=O)N[C@@H](CO)C(=O)N[C@@H](CC(N)=O)C(=O)N1CCC[C@H]1C(=O)N1CCC[C@H]1C(=O)N2` (H-GCCSNPPCAHEHC-NH2; disulfide 2-8, 3-13)?
**A.** IC50 [1]: 130 nM; IC50 [2]: 350 nM; IC50 [3]: 150 nM; IC50 [4]: > 10000 nM; IC50 [5]: > 10000 nM; IC50 [6]: > 10000 nM; IC50 [7]: > 10000 nM; IC50 [8]: > 10000 nM; IC50 [9]: 170 nM; IC50 [10]: 160 nM; IC50 [11]: 160 nM; IC50 [12]: 300 nM; IC50 [13]: 200 nM; IC50 [14]: 160 nM; IC50 [15]: 710 nM; IC50 [16]: 430 nM; IC50 [17]: 190 nM; IC50 [18]: 1570 nM; IC50 [19]: 850 nM; IC50 [20]: 1130 nM; IC50 [21]: 530 nM; IC50 [22]: 220 nM; inhibition [23]: inactive; inhibition [24]: inactive; inhibition [25]: inactive
